In publication PMC12670405, “Second-Generation AURKA-Targeting PROTACs: Structural Optimization toward in Vivo Degradation in Neuroblastoma” (Journal of Medicinal Chemistry, 2025):
Like-named read-outs stand apart in the source and are kept apart here.

How the values were obtained:
[1] = tested on: MYCN; experiment: MYCN protein levels, Simple Western; format: cell-based, human; details: for MYCN codepletion: IMR-32, 500 nM, 24h postexposure; for DC50: read-out: MYCN DC50 24h
Description: Cells were seeded in T-25 flasks at different densities ranging from 1 to 2 million cells per flask and allowed to adhere for 1–2 days. In experiments involving compound treatment, this was done by medium replacement containing the compound(s) of interest in their corresponding concentrations. In competition binding experiments, cells were first pretreated with an excess of MK-5108, thalidomide or MG-132 for 1 h by shaking gently at room temperature prior to addition of SK4454 or SK5527. All samples were normalized to contain the same percentage of DMSO as the negative DMSO controls. Cells were harvested on ice at their respective time points by scraping, washed with ice-cold PBS to collect remaining cells, and centrifuged (2500 rpm, 4 °C). A second washing and centrifugation step was performed prior to collection of the final cell pellets which were then snap-frozen in liquid nitrogen and kept frozen at −80 °C until further processing. Lysis of cell pellets occurred in cold RIPA buffer (0.5% w/v Sodium Deoxycholate, 150 mM NaCl, 50 mM TrisHCl pH 7.5, 0.1% w/v SDS, 1% w/v NP-40) supplemented with protease and phosphatase inhibitors (Roche, #11836145001, #04906845001) by rotating gently at 4 °C for 1h, followed by a centrifugation step for 10 min (10,000 rpm, 4 °C). The supernatant was collected and concentrations of the obtained protein lysates were measured using the Pierce BCA Protein Assay Kit (Thermo Fisher Scientific, #23227).
Simple Western analyses were performed with the Wes instrument (Bio-Techne) using the 12–230 kDa Wes Separation module and the EZ standard pack reagent 1 (Biotechne, #SM-W001, #PS-ST01EZ-8) following the manufacturer’s protocol. Protein lysates were loaded at 0.8 μg/μL under denaturing conditions (0.2 μg/μL for MYCN detection). Chemiluminescence peaks were generated by the Compass Software (Bio-Techne) and the area under the peaks calculated using the Gaussian fit method. Per lane, quantified data were always normalized to that of the loading control (Vinculin) prior to calculating fold changes relative to the negative DMSO control. Mean fold changes are calculated from 3 individual experiments. A list of the primary and secondary antibodies used can be found in the Supporting Information (Supplementary Table S7).
Graphs were generated using GraphPad Prism Software (version 10.1.2) or RStudio (R-4.3.2). All dose–response curves were computed on GraphPad Prism using the Variable Slope (four parameters) equation. Absolute half-maximal degradation (DC50), growth inhibitory (GI50) and enzymatic inhibitory (IC50) concentrations, as well as inhibition constants (Ki) were derived from dose–response curves via interpolation. Statistical tests were performed on GraphPad Prism and detailed in the figure legends. Unless otherwise stated, “n” in the figure legends indicates the number of independent experiments conducted at different times.

[2] = tested on: RPE; experiment: IncuCyte live-cell imaging, antiproliferative effect; format: cell-based

Structure (SMILES) | MYCN codepletion [1] | DC50 ([1]; IMR-32) | DC50 ([1]; NGP) | DC50 ([1]; SJNB-8) | GI50 ([2]; 72 h, read-out: Cell GI50 72h) | GI50 ([2]; 72h, read-out: GI50)
Cc1cc(Nc2ccc(F)c(CC3(C(=O)N4CCC(CN5CCN(c6ccc(N7CCC(=O)NC7=O)cn6)CC5)CC4)CCN(Cc4cccc(Cl)c4F)CC3)n2)n[nH]1 [SK4454] | ~50% | 117 nM | 1360 nM | 1390 nM | 221 nM | –
Cc1cc(Nc2ccc(F)c(CC3(C(=O)N4CCC(F)(CN5CCN(c6ccc(N7CCC(=O)NC7=O)cn6)CC5)CC4)CCN(Cc4cccc(Cl)c4F)CC3)n2)n[nH]1 [SK5527] | ~50% | 236 nM | 89 nM | 772 nM | 460 nM | ~500 nM
